Experimental data as given in patent US9211310B2, “Use of a Chinese medicine composition in preparing medicaments for treating secondary prevention of myocardial infarction” (TASLY PHARMACEUTICAL GROUP CO., LTD, priority 2010, dated 2015).

System: patients after acute myocardial infarction
Experiment: Life quality, Seattle Angina Questionnaire (SAQ), same clinical trial
Format: in vivo, human
Description: 3508 patients who were in accordance with the diagnostic standards of AMI for 28 days to 2 years and differentiated as Qi deficiency and blood stagnation syndrome by TCM were studied. 0.5 g Chinese medicine composition prepared by the method of EXAMPLE 1 (Coded as QSYQ) was administrated half an hour after meal, 3 times per day.
There were 19 questions in the Seattle angina questionnaire (SAQ), including 5 parts: physical limitation (PL), anginal stability (AS), anginal frequency (AF), treatment satisfaction (TS) and disease perception (DP). After being given necessary explanation by doctors, the questions were answered independently by patients.
They included the overall survival time, angina pectoris score, TCM symptom score and life quality score, where angina pectoris score, TCM symptom score and life quality score were evaluated at randomization, in 1st, 3rd, 6th, 9th, 12th month after treatment and 18th month after follow-up.
All evaluation results of SAQ were described during the period of observation, and Wilcoxon rank sum test was used for inter-group comparison.
The evaluation results in the SAQ were depicted in different observations, and inter-group comparison was tested by Wilcoxon Rank-sum test.

Q: For `CC(=O)Oc1ccccc1C(=O)O` [Control group, aspirine], which “SAQ Question 1-5: Slightly limited, percent of patients” value (12 months after treatment, PP) is on record?
A: (29.70%)

Q: And the “SAQ Question 1-9: Mildly limited, % of cases” value (12 months after treatment, PP)?
A: (20.07%)

Q: What about the “SAQ Question 1-9: Mildly limited, cases” value (12 months after treatment, PP) of the same compound?
A: 278

Q: And the “SAQ Question 1-9: Moderately limited, % of cases” value (12 months after treatment, PP)?
A: (20.87%)

Q: What about the “SAQ Question 1-9: Moderately limited, cases” value (12 months after treatment, PP) of the same compound?
A: 289

Q: What about the “SAQ Question 1-9: Not limited, % of cases” value (12 months after treatment, PP) of the same compound?
A: (5.05%)

Q: What about the “SAQ Question 1-9: Not limited, cases” value (12 months after treatment, PP) of the same compound?
A: 70

Q: What about the “SAQ Question 1-9: Other reasons, % of cases” value (12 months after treatment, PP) of the same compound?
A: (6.28%)

Q: And the “SAQ Question 1-9: Other reasons, cases” value (12 months after treatment, PP)?
A: 87

Q: And the “SAQ Question 1-9: Severely limited, % of cases” value (12 months after treatment, PP)?
A: (29.75%)

Q: And the “SAQ Question 1-9: Severely limited, cases” value (12 months after treatment, PP)?
A: 412

Q: What about the “SAQ Question 1-9: Slightly limited, % of cases” value (12 months after treatment, PP) of the same compound?
A: (17.98%)

Q: What about the “SAQ Question 1-9: Slightly limited, cases” value (12 months after treatment, PP) of the same compound?
A: 249

Q: And the “SAQ 2nd question: Clearly increased, % of cases” value (Baseline, FAS)?
A: (3.17%)

Q: And the “SAQ 2nd question: Clearly increased, cases” value (Baseline, FAS)?
A: 55

Q: What about the “SAQ 2nd question: Clearly reduced, % of cases” value (Baseline, FAS) of the same compound?
A: (12.46%)

Q: And the “SAQ 2nd question: Clearly reduced, cases” value (Baseline, FAS)?
A: 216

Q: What about the “SAQ 2nd question: Same, % of cases” value (Baseline, FAS) of the same compound?
A: (62.09%)

Q: And the “SAQ 2nd question: Same, cases” value (Baseline, FAS)?
A: 1076

Q: And the “SAQ 2nd question: Slightly increased, % of cases” value (Baseline, FAS)?
A: (6.92%)

Q: And the “SAQ 2nd question: Slightly increased, cases” value (Baseline, FAS)?
A: 120

Q: What about the “SAQ 2nd question: Slightly reduced, % of cases” value (Baseline, FAS) of the same compound?
A: (15.35%)

Q: And the “SAQ 2nd question: Slightly reduced, cases” value (Baseline, FAS)?
A: 266

Q: And the “SAQ 3rd question: 1-2 times per week, % of cases” value (Baseline, FAS)?
A: (15.35%)

Q: And the “SAQ 3rd question: 1-2 times per week, cases” value (Baseline, FAS)?
A: 266

Q: And the “SAQ 3rd question: 1-3 times per day, % of cases” value (Baseline, FAS)?
A: (6.92%)

Q: And the “SAQ 3rd question: 1-3 times per day, cases” value (Baseline, FAS)?
A: 120

Q: And the “SAQ 3rd question: <1 time per week, % of cases” value (Baseline, FAS)?
A: (12.46%)

Q: What about the “SAQ 3rd question: <1 time per week, cases” value (Baseline, FAS) of the same compound?
A: 216

Q: And the “SAQ 3rd question: No onset, % of cases” value (Baseline, FAS)?
A: (0.00%)

Q: And the “SAQ 3rd question: No onset, cases” value (Baseline, FAS)?
A: 0

Q: And the “SAQ 3rd question: ≧3 times per week, % of cases” value (Baseline, FAS)?
A: (62.09%)

Q: And the “SAQ 3rd question: ≧3 times per week, cases” value (Baseline, FAS)?
A: 1076

Q: What about the “SAQ 3rd question: ≧4 times per day, % of cases” value (Baseline, FAS) of the same compound?
A: (3.17%)

Q: And the “SAQ 3rd question: ≧4 times per day, cases” value (Baseline, FAS)?
A: 55

Q: And the “SAQ Question 1-3: Mildly limited, number of patients” value (Baseline, FAS)?
A: 149

Q: What about the “SAQ Question 1-3: Mildly limited, percent of patients” value (Baseline, FAS) of the same compound?
A: (8.57%)

Q: And the “SAQ Question 1-3: Moderately limited, number of patients” value (Baseline, FAS)?
A: 53

Q: What about the “SAQ Question 1-3: Moderately limited, percent of patients” value (Baseline, FAS) of the same compound?
A: (3.05%)

Q: And the “SAQ Question 1-3: Not limited, number of patients” value (Baseline, FAS)?
A: 1170

Q: What about the “SAQ Question 1-3: Not limited, percent of patients” value (Baseline, FAS) of the same compound?
A: (67.32%)

Q: What about the “SAQ Question 1-3: Other reasons, number of patients” value (Baseline, FAS) of the same compound?
A: 11

Q: And the “SAQ Question 1-3: Other reasons, percent of patients” value (Baseline, FAS)?
A: (0.63%)

Q: And the “SAQ Question 1-3: Severely limited, number of patients” value (Baseline, FAS)?
A: 15

Q: What about the “SAQ Question 1-3: Severely limited, percent of patients” value (Baseline, FAS) of the same compound?
A: (0.86%)

Q: And the “SAQ Question 1-3: Slightly limited, number of patients” value (Baseline, FAS)?
A: 340

Q: And the “SAQ Question 1-3: Slightly limited, percent of patients” value (Baseline, FAS)?
A: (19.56%)

Q: What about the “SAQ Question 1-4: Mildly limited, number of patients” value (Baseline, FAS) of the same compound?
A: 402

Q: What about the “SAQ Question 1-4: Mildly limited, percent of patients” value (Baseline, FAS) of the same compound?
A: (23.21%)

Q: And the “SAQ Question 1-4: Moderately limited, number of patients” value (Baseline, FAS)?
A: 208

Q: And the “SAQ Question 1-4: Moderately limited, percent of patients” value (Baseline, FAS)?
A: (12.01%)

Q: And the “SAQ Question 1-4: Not limited, number of patients” value (Baseline, FAS)?
A: 495

Q: And the “SAQ Question 1-4: Not limited, percent of patients” value (Baseline, FAS)?
A: (28.58%)

Q: And the “SAQ Question 1-4: Other reasons, number of patients” value (Baseline, FAS)?
A: 14

Q: And the “SAQ Question 1-4: Other reasons, percent of patients” value (Baseline, FAS)?
A: (0.81%)

Q: What about the “SAQ Question 1-4: Severely limited, number of patients” value (Baseline, FAS) of the same compound?
A: 59

Q: What about the “SAQ Question 1-4: Severely limited, percent of patients” value (Baseline, FAS) of the same compound?
A: (3.41%)

Q: What about the “SAQ Question 1-4: Slightly limited, number of patients” value (Baseline, FAS) of the same compound?
A: 554

Q: And the “SAQ Question 1-4: Slightly limited, percent of patients” value (Baseline, FAS)?
A: (31.99%)

Q: What about the “SAQ Question 1-5: Mildly limited, number of patients” value (Baseline, FAS) of the same compound?
A: 357

Q: And the “SAQ Question 1-5: Mildly limited, percent of patients” value (Baseline, FAS)?
A: (20.58%)

Q: And the “SAQ Question 1-5: Moderately limited, number of patients” value (Baseline, FAS)?
A: 238

Q: What about the “SAQ Question 1-5: Moderately limited, percent of patients” value (Baseline, FAS) of the same compound?
A: (13.72%)

Q: What about the “SAQ Question 1-5: Not limited, number of patients” value (Baseline, FAS) of the same compound?
A: 567

Q: What about the “SAQ Question 1-5: Not limited, percent of patients” value (Baseline, FAS) of the same compound?
A: (32.68%)

Q: And the “SAQ Question 1-5: Other reasons, number of patients” value (Baseline, FAS)?
A: 13

Q: What about the “SAQ Question 1-5: Other reasons, percent of patients” value (Baseline, FAS) of the same compound?
A: (0.75%)

Q: And the “SAQ Question 1-5: Severely limited, number of patients” value (Baseline, FAS)?
A: 53

Q: And the “SAQ Question 1-5: Severely limited, percent of patients” value (Baseline, FAS)?
A: (3.05%)

Q: What about the “SAQ Question 1-5: Slightly limited, number of patients” value (Baseline, FAS) of the same compound?
A: 507

Q: And the “SAQ Question 1-5: Slightly limited, percent of patients” value (Baseline, FAS)?
A: (29.22%)

Q: What about the “SAQ Question 1-9: Mildly limited, % of cases” value (Baseline, FAS) of the same compound?
A: (14.70%)

Q: What about the “SAQ Question 1-9: Mildly limited, cases” value (Baseline, FAS) of the same compound?
A: 249

Q: And the “SAQ Question 1-9: Moderately limited, % of cases” value (Baseline, FAS)?
A: (21.19%)

Q: And the “SAQ Question 1-9: Moderately limited, cases” value (Baseline, FAS)?
A: 359

Q: What about the “SAQ Question 1-9: Not limited, % of cases” value (Baseline, FAS) of the same compound?
A: (2.36%)

Q: What about the “SAQ Question 1-9: Not limited, cases” value (Baseline, FAS) of the same compound?
A: 40
